Test results taken from ChEMBL document CHEMBL2169878 (J Med Chem, 2012).

How the values were obtained:
Homo sapiens [1] = experiment: Volume of distribution in po dosed human measured in plasma; assay type: ADME, organism-based; settings: in vivo
[2] = Cytotoxicity against human HepG2 cells after 24 hrs by neutral red dye uptake assay; assay type: cell-based; settings: read-out: TC50
Salmonella typhimurium [3] = experiment: Mutagenicity against Salmonella typhimurium TA98 assessed as revertants at 80 uM incubated for 90 mins followed by drug washout measured after 2 days relative to positive control; assay type: toxicity, organism-based; settings: salmonella enterica subsp. enterica serovar typhimurium, 1.5 h
Salmonella typhimurium [4] = experiment: Mutagenicity against Salmonella typhimurium TA100 assessed as revertants at 20 uM incubated for 90 mins followed by drug washout measured after 2 days relative to positive control; assay type: toxicity, organism-based; settings: salmonella enterica subsp. enterica serovar typhimurium, 1.5 h
Salmonella typhimurium [5] = experiment: Mutagenicity against Salmonella typhimurium TA100 assessed as revertants at 40 uM incubated for 90 mins followed by drug washout measured after 2 days relative to positive control; assay type: toxicity, organism-based; settings: salmonella enterica subsp. enterica serovar typhimurium
Salmonella typhimurium [6] = experiment: Mutagenicity against Salmonella typhimurium TA100 assessed as revertants at […] incubated for 90 mins followed by drug washout measured after 2 days relative to positive control; assay type: toxicity, organism-based; settings: salmonella enterica subsp. enterica serovar typhimurium
Salmonella typhimurium [7] = experiment: Mutagenicity against Salmonella typhimurium TA100 assessed as revertants at 10 uM incubated for 90 mins followed by drug washout measured after 2 days relative to positive control; assay type: toxicity, organism-based; settings: salmonella enterica subsp. enterica serovar typhimurium
Salmonella typhimurium [8] = experiment: Mutagenicity against Salmonella typhimurium TA98 assessed as revertants at 5 uM incubated for 90 mins followed by drug washout measured after 2 days relative to positive control; assay type: toxicity, organism-based; settings: salmonella enterica subsp. enterica serovar typhimurium, 1.5 h
Salmonella typhimurium [9] = experiment: Mutagenicity against Salmonella typhimurium TA98 assessed as revertants at 10 uM incubated for 90 mins followed by drug washout measured after 2 days relative to positive control; assay type: toxicity, organism-based; settings: salmonella enterica subsp. enterica serovar typhimurium, 1.5 h
[10] = Cytotoxicity against mouse NIH3T3 cells after 24 hrs by neutral red dye uptake assay; assay type: cell-based; settings: read-out: TC50
Salmonella typhimurium [11] = experiment: Mutagenicity against Salmonella typhimurium TA100 assessed as revertants at 80 uM incubated for 90 mins followed by drug washout measured after 2 days relative to positive control; assay type: toxicity, organism-based; settings: salmonella enterica subsp. enterica serovar typhimurium
Salmonella typhimurium [12] = experiment: Mutagenicity against Salmonella typhimurium TA98 assessed as revertants at 20 uM incubated for 90 mins followed by drug washout measured after 2 days relative to positive control; assay type: toxicity, organism-based; settings: salmonella enterica subsp. enterica serovar typhimurium, 1.5 h
Homo sapiens [13] = experiment: Volume of distribution in po dosed human measured in whole blood; assay type: ADME, organism-based; settings: in vivo
Salmonella typhimurium [14] = experiment: Mutagenicity against Salmonella typhimurium TA100 assessed as revertants at 5 uM incubated for 90 mins followed by drug washout measured after 2 days relative to positive control; assay type: toxicity, organism-based; settings: salmonella enterica subsp. enterica serovar typhimurium, 1.5 h
Salmonella typhimurium [15] = experiment: Mutagenicity against Salmonella typhimurium TA98 assessed as revertants at 40 uM incubated for 90 mins followed by drug washout measured after 2 days relative to positive control; assay type: toxicity, organism-based; settings: salmonella enterica subsp. enterica serovar typhimurium
[16] = Half life in po dosed human plasma; assay type: ADME, organism-based
Salmonella typhimurium [17] = experiment: Mutagenicity against Salmonella typhimurium TA98 assessed as revertants at […] incubated for 90 mins followed by drug washout measured after 2 days relative to positive control; assay type: toxicity, organism-based; settings: salmonella enterica subsp. enterica serovar typhimurium
Heart [18] = experiment: Cardiotoxicity against Sprague-Dawley rat Langendorff perfused heart assessed as QT time interval at 30 uM by electrophysiological analysis (reference value: 68.51 2.73 ms); assay type: toxicity, tissue-based
Heart [19] = experiment: Cardiotoxicity against Sprague-Dawley rat Langendorff perfused heart assessed as QT time interval at 10 uM by electrophysiological analysis (reference value: 68.51 2.73 ms); assay type: toxicity, tissue-based

Structure (SMILES)	Vd (Homo sapiens [1]) [L/kg]	CC50 at 24 h [2] [µM]	Activity (Salmonella typhimurium [3]) [%]	Activity (Salmonella typhimurium [4]) [%]	Activity (Salmonella typhimurium [5]) [%]	Activity (Salmonella typhimurium [6]) [%]	Activity (Salmonella typhimurium [7]) [%]	Activity (Salmonella typhimurium [8]) [%]	Activity (Salmonella typhimurium [9]) [%]	CC50 at 24 h [10] [µM]	Activity (Salmonella typhimurium [11]) [%]	Activity (Salmonella typhimurium [12]) [%]	Vd (Homo sapiens [13]) [L/kg]	Activity (Salmonella typhimurium [14]) [%]	Activity (Salmonella typhimurium [15]) [%]	half-life [16] [days]	Activity (Salmonella typhimurium [17]) [%]	Time (Heart [18]) [ms]	Time (Heart [19]) [ms]
CCN(CC)CCCC(C)Nc1ccnc2cc(Cl)ccc12 (centres undefined) [CHLOROQUINE]	200	4.3	50	7	38	36	26	14	61	> 80	23	29	200	21	19	20	24		
CC(C)(C)c1ccc(C(O)CCCN2CCC(C(O)(c3ccccc3)c3ccccc3)CC2)cc1 (centres undefined) [TERFENADINE]																		125	99.83
